ChEMBL document CHEMBL2440106, “Cloning, characterization, and inhibition studies of a β-carbonic anhydrase from Leishmania donovani chagasi, the protozoan parasite responsible for leishmaniasis” (J Med Chem, 2013)
Values after ≈ are worked out from the molar mass of the structure shown. Active and inactive are the calls of the source. The calls are words filed in the database; no cut-off is given here.

Experiments:
Leishmania amazonensis [1] = experiment: Antileishmanial activity against promastigote form of Leishmania amazonensis MHOM/BR/76/Ma-5 assessed as parasite growth inhibition at 256 uM after 120 hrs by resazurin dye-based assay relative to control; assay type: functional; conditions: MHOM/BR/76/Ma-5, 120 h, read-out: GI
Leishmania chagasi [2] = experiment: Antileishmanial activity against promastigote form of Leishmania chagasi MHOM/BR/1974/PP75 assessed as parasite growth inhibition at 256 uM after 120 hrs by resazurin dye-based assay relative to control; assay type: functional; conditions: MHOM/BR/1974/PP75, 120 h, read-out: GI
Leishmania chagasi [3] = experiment: Antileishmanial activity against promastigote form of Leishmania chagasi assessed as appearance of many number of vacuoles in cytoplasm at 256 uM after 24 hrs by transmission electron microscopic analysis; assay type: functional, organism-based
Leishmania chagasi [4] = experiment: Antileishmanial activity against promastigote form of Leishmania chagasi assessed as appearance of autophagic vacuoles at 256 uM after 24 hrs by transmission electron microscopic analysis; assay type: functional, organism-based
Leishmania amazonensis [5] = experiment: Antileishmanial activity against promastigote form of Leishmania amazonensis MHOM/BR/76/Ma-5 assessed as parasite growth inhibition at 128 uM after 120 hrs by resazurin dye-based assay relative to control; assay type: functional; conditions: MHOM/BR/76/Ma-5, 120 h, read-out: GI
Leishmania chagasi [6] = experiment: Antileishmanial activity against promastigote form of Leishmania chagasi assessed as marked swelling of vacuoles at 256 uM after 24 hrs by transmission electron microscopic analysis; assay type: functional, organism-based
Leishmania chagasi [7] = experiment: Antileishmanial activity against promastigote form of Leishmania chagasi MHOM/BR/1974/PP75 assessed as parasite growth inhibition at 128 uM after 120 hrs by resazurin dye-based assay relative to control; assay type: functional; conditions: MHOM/BR/1974/PP75, 120 h, read-out: GI
Leishmania chagasi [8] = experiment: Antileishmanial activity against promastigote form of Leishmania chagasi assessed as accumulation of intracytoplasmic electron-dense granules at 256 uM after 24 hrs by transmission electron microscopic analysis; assay type: functional, organism-based
Leishmania amazonensis [9] = experiment: Antileishmanial activity against promastigote form of Leishmania amazonensis MHOM/BR/76/Ma-5 assessed as parasite growth inhibition after 120 hrs by resazurin dye-based assay; assay type: functional; conditions: MHOM/BR/76/Ma-5, 120 h
Leishmania chagasi [10] = experiment: Antileishmanial activity against promastigote form of Leishmania chagasi MHOM/BR/1974/PP75 assessed as parasite growth inhibition after 120 hrs by resazurin dye-based assay; assay type: functional; conditions: MHOM/BR/1974/PP75, 120 h

| Compound | inhibition of growth at 256 µM (Leishmania amazonensis [1]) | inhibition of growth at 256 µM (Leishmania chagasi [2]) | other results |
| --- | --- | --- | --- |
| COc1cccc(/C=N\NC(=O)Nc2nnc(S)s2)c1 | 76.4% | 32.2% | – |
| O=C(N/N=C\c1ccc(F)cc1)Nc1nnc(S)s1 | 56% | 18% | – |
| C/C(CC(C)C)=N/NC(=O)Nc1nnc(S)s1 | 91.9% | 74.8% | – |
| O=C(N/N=C1\C(=O)Nc2ccccc21)Nc1n[nH]c(=S)s1 | 0% | 0% | – |
| C/C(=N/NC(=O)Nc1nnc(S)s1)c1ccc(Cl)cc1 | 7% | 0% | – |
| O=C(N/N=C1\C(=O)Nc2ccc(Br)cc21)Nc1n[nH]c(=S)s1 | 0% | 0% | – |
| O=C(N/N=C\c1cccc(Br)c1)Nc1nnc(S)s1 | 97% | 100% | Activity (Leishmania chagasi [3]): Active; Activity (Leishmania chagasi [4]): Active; inhibition of growth at 128 µM (Leishmania amazonensis [5]): 28%; Activity (Leishmania chagasi [6]): Active; inhibition of growth at 128 µM (Leishmania chagasi [7]): 30%; Activity (Leishmania chagasi [8]): Active; MIC (Leishmania amazonensis [9]): 256 µM (≈ 91.7 µg/mL); MIC (Leishmania chagasi [10]): 256 µM (≈ 91.7 µg/mL) |
| O=C(N/N=C\c1ccc(Cl)cc1)Nc1nnc(S)s1 | 62.3% | 51.5% | – |
| O=C(N/N=C\c1ccccc1)Nc1nnc(S)s1 | 45.8% | 36.3% | – |
